According to patent US10934297B2, “5-heteroaryl substituted indazole-3-carboxamides and preparation and use thereof” (Samumed, LLC, priority 2018, dated 2021):
pEC50, pIC50: −log10 of the molar value.

Legend:
[1] = tested on: Wnt activity (Sp5-Luc reporter in SW480 cells); assay: Screening assay for Wnt activity: Sp5-Luc reporter gene assay in SW480 colon carcinoma cells; assay type: cell-based, human; conditions: Homo sapiens, 36 to 48 hours
Outline: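 EC50 values come from a variable-slope four-parameter fit of luminescence normalized to DMSO-only wells. The read-out follows 36–48 h incubation at 37 °C, 5% CO2, in DMEM containing 1% fetal bovine serum. Cells are hygromycin-selected SW480 stably expressing firefly luciferase under a Wnt-responsive Sp5 promoter (eight TCF/LEF sites).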

GSK3β kinase = GSK3β kinase (Homo sapiens (Human), UniProt P49841); assay: GSK3β kinase assay (Ser/Thr 09 peptide Z-lyte FRET); assay type: biochemical; conditions: read-out: EC50 (method: IC50)
Chain of GSK3β kinase (P49841 whole entry): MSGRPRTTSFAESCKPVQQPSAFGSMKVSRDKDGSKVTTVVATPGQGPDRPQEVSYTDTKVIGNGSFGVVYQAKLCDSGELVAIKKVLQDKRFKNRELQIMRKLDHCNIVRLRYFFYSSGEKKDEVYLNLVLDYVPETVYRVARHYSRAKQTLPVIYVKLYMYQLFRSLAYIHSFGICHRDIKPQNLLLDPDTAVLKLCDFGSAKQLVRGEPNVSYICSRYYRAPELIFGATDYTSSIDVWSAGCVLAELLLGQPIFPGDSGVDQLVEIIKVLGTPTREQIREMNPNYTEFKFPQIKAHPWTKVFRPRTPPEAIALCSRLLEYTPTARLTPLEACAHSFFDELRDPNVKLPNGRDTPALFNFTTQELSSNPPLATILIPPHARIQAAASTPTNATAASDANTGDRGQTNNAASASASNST
Outline: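 Non-radioactive Z-lyte FRET read-out, kinase activity expressed as coumarin/fluorescein emission ratio. Compounds incubated with the reaction mixture one hour at room temperature in duplicate, then development buffer added for another hour. IC50 from non-linear regression of dose-response curves.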

DYRK1A kinase = DYRK1A kinase (Homo sapiens (Human), UniProt Q13627); assay: DYRK1A kinase assay (Ser/Thr 18 peptide Z-lyte FRET); assay type: biochemical; conditions: read-out: EC50 (method: IC50)
Outline: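 Kinase reactions with compound ran 1 h at room temperature in duplicate, and development reagent was then added for another hour.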

[2] = tested on: primary human fibroblasts derived from IPF patients (LL29 cells); assay: Inhibition of the fibrotic process: αSMA staining in TGF-β1 treated LL29 fibroblasts; assay type: cell-based; conditions: Homo sapiens, Fibroblast, 96 h; LL29 cells, TGF-β1 20 ng/mL, 4 days, % αSMA positive cells
Outline: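 LL29 fibroblasts from IPF patients, in F12 medium with 1% FBS, treated with TGF-β1 plus compound; TGF-β1 with DMSO as positive control, DMSO alone as negative control. After 4 days' incubation, SYTOX green nucleic acid stain added at 1 μM final, 30 min at room temperature.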

IL-6 = IL-6 inhibition in LPS-stimulated human peripheral blood mononuclear cells (HTRF); assay type: cell-based; conditions: Homo sapiens, PBMC; for pEC50: huPBMCs, LPS 50 ng/mL, 22 hours, IL-6 HTRF; for inhibition at 10 µM: read-out: percent inhibition at 10 μM
Outline: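 HTRF 665/620 nm ratio, read after 3 h antibody incubation at room temperature, quantified IL-6 released by fresh human PBMCs (1×10e6 cells/mL, 1% FBS-RPMI). The cells got compound, then 50 ng/mL LPS at 2 h, followed by a further 22 h at 37° C. EC50 came from DMSO-normalized readings run in duplicate.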

[3] = tested on: SW480 colon carcinoma cells; assay: Cell viability assay (CellTiter-Glo) in SW480 colon carcinoma cells; assay type: cell-based, human; conditions: Homo sapiens, 96 h, four days
Outline: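 Viability was taken from CellTiter-Glo ATP luminescence, read about 12 min after reagent addition, relative to DMSO controls. The cells were Sp5-Luc reporter SW480 colon carcinoma cells, 2,000/well in 1% FBS DMEM, exposed to compound for four days at 37 °C.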

With Cc1ncc(-c2ccc3[nH]nc(C(=O)N[C@@H]4CCCC[C@H]4F)c3c2)n1C [Compound 13, 5-(1,2-Dimethyl-1H-imidazol-5-yl)-N-((1R,2R)-2-fluorocyclohexyl)-1H-indazole-3-carboxamide] as the molecule, how does the pEC50 [1] read?
The pEC50 was under 5.00.

And the pIC50 (GSK3β kinase)?
Its pIC50 is 7.62.

What about the pIC50 (DYRK1A kinase) of the same molecule?
The pIC50 was 7.34.

What about the pEC50 [2] of the same molecule?
Its pEC50 is 5.86.

And the pEC50 (IL-6)?
Its pEC50 is under 5.00.

And the pEC50 [3]?
The pEC50 was under 5.00.

How did the pEC50 [1] turn out when Cn1cc(-c2ccc3[nH]nc(C(=O)NC4CCN(CC(C)(C)F)CC4)c3c2)cn1 [Compound 37, N-(1-(2-Fluoro-2-methylpropyl)piperidin-4-yl)-5-(1-methyl-1H-pyrazol-4-yl)-1H-indazole-3-carboxamide] was run?
The pEC50 was 6.13.

What about the pIC50 (GSK3β kinase) of the same molecule?
The pIC50 was 7.85.

And the pIC50 (DYRK1A kinase)?
The pIC50 was 8.30.

And the pEC50 [2]?
Its pEC50 is 6.93.

What about the pEC50 (IL-6) of the same molecule?
Its pEC50 is 6.26.

What about the pEC50 [3] of the same molecule?
Its pEC50 is 6.07.

O=C(N[C@H]1CC[C@H](CN2CC(F)C2)CC1)c1n[nH]c2ccc(-c3cnn(C4CC4)c3)cc12 [Compound 26, 5-(1-Cyclopropyl-1H-pyrazol-4-yl)-N-((1R,4R)-4-((3-fluoroazetidin-1-yl)methyl)cyclohexyl)-1H-indazole-3-carboxamide] was tested. Which pEC50 [1] did it give?
Its pEC50 is 5.93.

And the pIC50 (GSK3β kinase)?
Its pIC50 is 7.47.

And the pIC50 (DYRK1A kinase)?
Its pIC50 is 8.30.

What about the pEC50 [2] of the same molecule?
Its pEC50 is under 5.00.

And the pEC50 (IL-6)?
Its pEC50 is 5.98.

And the pEC50 [3]?
The pEC50 was 6.07.

How did the pEC50 [1] turn out when O=C(N[C@H]1CC[C@H](CN2CC(F)C2)CC1)c1n[nH]c2ccc(-c3cnn4c3CCCC4)cc12 [Compound 27, N-((1R,4R)-4-((3-Fluoroazetidin-1-yl)methyl)cyclohexyl)-5-(4,5,6,7-tetrahydropyrazolo[1,5-a]pyridin-3-yl)-1H-indazole-3-carboxamide] was run?
Its pEC50 is 6.17.

What about the pIC50 (GSK3β kinase) of the same molecule?
Its pIC50 is 7.92.

And the pIC50 (DYRK1A kinase)?
The pIC50 was 8.40.

What about the pEC50 [2] of the same molecule?
Its pEC50 is 6.46.

And the pEC50 (IL-6)?
The pEC50 was 5.42.

What about the pEC50 [3] of the same molecule?
Its pEC50 is 5.19.

What does the source list for Cn1cc(-c2cc3c(C(=O)N[C@H]4CC[C@H](CN5CC(F)C5)CC4)n[nH]c3cc2F)cn1 [Compound 24, 6-fluoro-N-((1R,4R)-4-((3-fluoroazetidin-1-yl)methyl)cyclohexyl)-5-(1-methyl-1H-pyrazol-4-yl)-1H-indazole-3-carboxamide]?
pEC50 [1]: 5.87; pIC50 (GSK3β kinase): 7.66; pIC50 (DYRK1A kinase): 8.70; pEC50 [2]: 6.90; pEC50 (IL-6): 6.38; pEC50 [3]: 6.08

Cn1cc(-c2cc(F)c3[nH]nc(C(=O)N[C@@H]4CCCC[C@H]4F)c3c2)cn1 [Compound 11, 7-Fluoro-N-((1R,2R)-2-fluorocyclohexyl)-5-(1-methyl-1H-pyrazol-4-yl)-1H-indazole-3-carboxamide] was tested. Which pEC50 [1] did it give?
The pEC50 was under 5.00.

What about the pIC50 (GSK3β kinase) of the same molecule?
Its pIC50 is 7.70.

And the pIC50 (DYRK1A kinase)?
The pIC50 was 6.70.

And the pEC50 [2]?
Its pEC50 is under 5.00.

And the pEC50 (IL-6)?
Its pEC50 is 5.48.

And the pEC50 [3]?
The pEC50 was 5.71.

CN1CCN(c2ccc(NC(=O)c3n[nH]c4cc(F)c(-c5cnn(C)c5)cc34)cn2)CC1 [Compound 95, 6-Fluoro-5-(1-methyl-1H-pyrazol-4-yl)-N-(6-(4-methylpiperazin-1-yl)pyridin-3-yl)-1H-indazole-3-carboxamide] was tested. Which pEC50 [1] did it give?
The pEC50 was 6.76.

And the pIC50 (GSK3β kinase)?
The pIC50 was 7.34.

And the pIC50 (DYRK1A kinase)?
Its pIC50 is 9.00.

What about the pEC50 [2] of the same molecule?
The pEC50 was 6.71.

And the pEC50 (IL-6)?
The pEC50 was 6.00.

And the pEC50 [3]?
Its pEC50 is 6.54.

Which results are given for Cn1cc(-c2ccc3[nH]nc(C(=O)N[C@H]4CC[C@H](CN5CC(F)C5)CC4)c3c2)cn1 [Compound 23, N-((1R,4R)-4-((3-Fluoroazetidin-1-yl)methyl)cyclohexyl)-5-(1-methyl-1H-pyrazol-4-yl)-1H-indazole-3-carboxamide]?
pEC50 [1]: 6.11; pIC50 (GSK3β kinase): 8.30; pIC50 (DYRK1A kinase): 9.00; pEC50 [2]: 6.83; pEC50 (IL-6): 6.46; pEC50 [3]: 6.39

Which results are given for O=C(Nc1ccc(N2CCCC2)nc1)c1n[nH]c2cc(F)c(-c3cnn(C4CC4)c3)cc12 [Compound 92, 5-(1-Cyclopropyl-1H-pyrazol-4-yl)-6-fluoro-N-(6-(pyrrolidin-1-yl)pyridin-3-yl)-1H-indazole-3-carboxamide]?
pEC50 [1]: 5.64; pIC50 (GSK3β kinase): 6.16; pIC50 (DYRK1A kinase): 7.41; pEC50 [2]: 6.50; pEC50 (IL-6): < 5.00; inhibition at 10 µM (IL-6): 0%; pEC50 [3]: < 5.00

O=C(Nc1ccc(Cl)cc1)c1n[nH]c2cc(F)c(-c3cnn(C4CCNCC4)c3)cc12 [Compound 50, N-(4-Chlorophenyl)-6-fluoro-5-(1-(piperidin-4-yl)-1H-pyrazol-4-yl)-1H-indazole-3-carboxamide] was tested. Which pEC50 [1] did it give?
The pEC50 was 5.92.

And the pIC50 (GSK3β kinase)?
The pIC50 was 6.32.

And the pIC50 (DYRK1A kinase)?
Its pIC50 is 7.47.

What about the pEC50 [2] of the same molecule?
The pEC50 was 5.95.

And the pEC50 (IL-6)?
Its pEC50 is 5.22.

What about the pEC50 [3] of the same molecule?
Its pEC50 is 6.19.

What does the source list for Cn1cc(-c2ccc3[nH]nc(C(=O)Nc4ccc(CN5CCCC5)cc4F)c3c2)cn1 [Compound 73, N-(2-Fluoro-4-(pyrrolidin-1-ylmethyl)phenyl)-5-(1-methyl-1H-pyrazol-4-yl)-1H-indazole-3-carboxamide]?
pEC50 [1]: 5.81; pIC50 (GSK3β kinase): 7.17; pIC50 (DYRK1A kinase): 8.52; pEC50 [2]: 6.10; pEC50 (IL-6): 5.94; pEC50 [3]: 5.16

What does the source list for CN1CCN(c2ccc(NC(=O)c3n[nH]c4cc(F)c(-c5cnn(C)c5)cc34)cc2)CC1 [Compound 66, 6-Fluoro-5-(1-methyl-1H-pyrazol-4-yl)-N-(4-(4-methylpiperazin-1-yl)phenyl)-1H-indazole-3-carboxamide]?
pEC50 [1]: 6.02; pIC50 (GSK3β kinase): 7.19; pIC50 (DYRK1A kinase): 8.70; pEC50 [2]: 6.19; pEC50 (IL-6): 5.89; pEC50 [3]: 6.12

What does the source list for Cn1cc(-c2cc3c(C(=O)N[C@@H]4CCCC[C@H]4F)n[nH]c3cc2F)cn1 [Compound 10, 6-Fluoro-N-((1R,2R)-2-fluorocyclohexyl)-5-(1-methyl-1H-pyrazol-4-yl)-1H-indazole-3-carboxamide]?
pEC50 [1]: 5.47; pIC50 (GSK3β kinase): 8.05; pIC50 (DYRK1A kinase): 7.80; pEC50 [2]: 6.48; pEC50 (IL-6): 6.04; pEC50 [3]: 5.97

What does the source list for O=C(Nc1ccc(N2CCCC2)nc1)c1n[nH]c2cc(F)c(-c3cnn(C4CCNCC4)c3)cc12 [Compound 94, 6-Fluoro-5-(1-(piperidin-4-yl)-1H-pyrazol-4-yl)-N-(6-(pyrrolidin-1-yl)pyridin-3-yl)-1H-indazole-3-carboxamide]?
pEC50 [1]: 6.10; pIC50 (GSK3β kinase): 6.57; pIC50 (DYRK1A kinase): 8.40; pEC50 [2]: 5.86; pEC50 (IL-6): < 5.00; inhibition at 10 µM (IL-6): 5%; pEC50 [3]: 6.14

What does the source list for Cn1ncc(-c2ccc3[nH]nc(C(=O)NC4CCN(CC(C)(C)F)CC4)c3c2)c1C(F)F [Compound 41, 5-(5-(Difluoromethyl)-1-methyl-1H-pyrazol-4-yl)-N-(1-(2-fluoro-2-methylpropyl)piperidin-4-yl)-1H-indazole-3-carboxamide]?
pEC50 [1]: 6.08; pIC50 (GSK3β kinase): 7.12; pIC50 (DYRK1A kinase): 6.60; pEC50 [2]: 6.47; pEC50 (IL-6): 5.54; pEC50 [3]: 5.52

CN1CCC(c2ccc(NC(=O)c3n[nH]c4cc(F)c(-c5cnn(C)c5)cc34)cc2)CC1 [Compound 65, 6-Fluoro-5-(1-methyl-1H-pyrazol-4-yl)-N-(4-(1-methylpiperidin-4-yl)phenyl)-1H-indazole-3-carboxamide] was tested. Which pEC50 [1] did it give?
Its pEC50 is 6.09.

And the pIC50 (GSK3β kinase)?
Its pIC50 is 7.36.

What about the pIC50 (DYRK1A kinase) of the same molecule?
The pIC50 was 8.40.

And the pEC50 [2]?
The pEC50 was 6.21.

And the pEC50 (IL-6)?
Its pEC50 is 5.50.

And the pEC50 [3]?
Its pEC50 is 5.96.

How did the pEC50 [1] turn out when Cn1cc(-c2cc3c(C(=O)Nc4ccc5c(c4)CNC5)n[nH]c3cc2F)cn1 [Compound 84, 6-Fluoro-N-(isoindolin-5-yl)-5-(1-methyl-1H-pyrazol-4-yl)-1H-indazole-3-carboxamide] was run?
The pEC50 was 5.87.

What about the pIC50 (GSK3β kinase) of the same molecule?
The pIC50 was 7.68.

And the pIC50 (DYRK1A kinase)?
Its pIC50 is 8.70.

And the pEC50 [2]?
Its pEC50 is 5.77.

What about the pEC50 (IL-6) of the same molecule?
The pEC50 was under 5.00.

And the inhibition at 10 µM (IL-6)?
The inhibition at 10 µM was 2.1%.

What about the pEC50 [3] of the same molecule?
The pEC50 was 6.52.
